In PubChem BioAssay AID1390 (Sanford-Burnham Center for Chemical Genomics, 2008):
Active and inactive are the calls of the source.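 Rule for the calls: active = no band for the ATF-6 stress protein on the immunoblot of thapsigargin-stressed cell lysates; inactive = ATF-6 band still present, cleavage not blocked.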

Test system: CSM14.1 cells, thapsigargin, ATF-6 Western blot
Test: ATF-6 protein induction inhibitors, late-stage follow-up, mechanism study for ER stress cell death inhibitors, cell-based, thapsigargin, Western blot (AID 1390)

Q: Which outcome does the source give for `COc1ccc(C2CC(=O)C3=C(C2)Nc2ccccc2NC3c2cc(C)ccc2C)cc1` (stereo unspecified) here?
A: inactive

Q: `CCOc1cc(C2Nc3ccccc3NC3=C2C(=O)CC(c2ccc(OC)cc2)C3)cc(Cl)c1O` (stereo unspecified) was tested. Which outcome did it give?
A: inactive

Q: Which outcome does the source give for `COc1ccc(C2CC(=O)C3=C(C2)Nc2ccccc2NC3c2cccc(Br)c2)cc1OC` (stereo unspecified) here?
A: inactive

Q: For `CCCOc1ccc(C2Nc3ccccc3NC3=C2C(=O)CC(c2ccc(OC)c(OC)c2)C3)cc1` (stereo unspecified), which outcome is on record?
A: inactive

Q: With `COc1ccc(C2CC(=O)C3=C(C2)Nc2ccccc2NC3c2ccccc2C(F)(F)F)cc1OC` (stereo unspecified) as the compound, how does the outcome read?
A: inactive

Q: With `COc1ccc(C2CC(=O)C3=C(C2)Nc2ccccc2NC3c2cccc(Oc3ccccc3)c2)cc1OC` (stereo unspecified) as the compound, how does the outcome read?
A: inactive

Q: How did the outcome turn out when `CSc1ccc(C2Nc3ccccc3NC3=C2C(=O)CC(c2ccccc2)C3)cc1` (stereo unspecified) was run?
A: inactive

Q: How did the outcome turn out when `O=C1CC(c2ccccc2)CC2=C1C(c1c(F)cccc1Cl)Nc1ccccc1N2` (stereo unspecified) was run?
A: inactive

Q: `CC1(C)CC(=O)C2=C(C1)Nc1ccccc1NC2c1ccc(-c2ccccc2)cc1` (stereo unspecified) was tested. Which outcome did it give?
A: inactive

Q: With `COc1ccc(C2CC(=O)C3=C(C2)Nc2ccccc2NC3c2cccc(C(F)(F)F)c2)cc1OC` (stereo unspecified) as the compound, how does the outcome read?
A: inactive

Q: With `CCOc1cccc(C2Nc3ccccc3NC3=C2C(=O)CC(c2ccc(OC)cc2)C3)c1` (stereo unspecified) as the compound, how does the outcome read?
A: inactive
